Values of other authors, collected in US20050123615A1, “Controlled release dosage forms of azithromycin” (Pfizer Inc, priority 2003, published 2005).

Conditions: 3,995 human patients, all dose levels combined, oral

patients reporting abdominal pain: 2.5%
patients reporting diarrhea: 3.6%
patients reporting nausea: 2.6%
Compound: CC[C@H]1OC(=O)[C@H](C)[C@@H](O[C@H]2C[C@@](C)(OC)[C@@H](O)[C@H](C)O2)[C@H](C)[C@@H](O[C@@H]2O[C@H](C)C[C@H](N(C)C)[C@H]2O)[C@](C)(O)C[C@@H](C)CN(C)[C@H](C)[C@@H](O)[C@]1(C)O [azithromycin, 9a-aza-9a-methyl-9-deoxo-9a-homoerythromycin A]
patients reporting GI side effects: 9.6%
